Assay results from US9790286B2, “Stereoisomer peptides, their polymer conjugates, their encapsulation into nanoparticles, and uses thereof for the treatment of diseases caused by abnormal angiogenesis” (priority 2013, dated 2017).

What was measured:
[1] = system: PANC-1 Xenograft; experiment: PANC-1 xenograft mouse model of pancreatic ductal carcinoma; assay type: in vivo; conditions: 120 mg/Kg i.p. twice a week for 6 weeks
Procedure: (§1) Peptides in their stereoisomer forms were tested in vivo using two mouse models of human pancreatic ductal adenocarcinoma: the PANC-1 Xenograft mouse model and the MiaPaca-2 Xenograft mouse model. Athymic male nude mice (nu/nu) were injected s.c. with cultured […] human pancreatic cancer cells from each different model in the right mice flanks After tumors reached ˜150 mm^3 mice were randomly separated into three groups (n=3/group). Group 1 was treated with vehicle; Group 2 was treated with 120 mg/Kg Gemcitabine (standard established dose); and Group 3 was treated with 25 mg/kg of a combination of four stereoisomer peptides. Mice were dosed by i.p. injection twice a week for 6 weeks.

[2] = system: MiaPaca-2 Xenograft; experiment: MIAPaCa-2 xenograft mouse model of pancreatic ductal carcinoma; assay type: in vivo; conditions: 120 mg/Kg i.p. twice a week for 6 weeks
Procedure: as §1
In this model the tumors of treated mice grew slowly compared to untreated mice (see FIG. 14A). […] These two human mouse models confirm the therapeutic potency, efficacy, and value of the stereoisomer peptides to treat pancreatic cancer, one of the deadliest cancers for which there are no therapies.

## Nc1ccn([C@@H]2O[C@H](CO)[C@@H](O)C2(F)F)c(=O)n1 [Gemcitabine]
[1]
  condition of mice: moribund
[2]
  body weight: lost body weight
  condition of mice: moribund
  livers after euthanasia: dark with signs of necrosis
